Test systems include DU-145; HOP-92; EKVX; MDA-MB-435; HT-29; SR; OVCAR-3; SW-620; HCT-116; 786-0; SNB-75; CCRF-CEM; NCI/ADR-RES; HCT-15; A498; SK-MEL-28; MDA-MB-231; SNB-19; RPMI-8226; NCI-H522.
What all share (assay): inhibition of tumour cell growth, NCI panel, 48 h

The structures appear in SMILES notation.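 48-hour exposure; five concentrations; linearly interpolated endpoints. The concentration for 50% growth inhibition is given as GI50.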 Active and inactive are the calls of the source. Cut-off read from the data, not from the text of the source: active = GI50 up to about 1.1 µM and inactive = higher. Bounds are passed on as bounds.

As to `COc1cccc(CCCNC(=O)Cc2cc(OC)c(OC)cc2CO)c1`, the GI50 with DU-145, in the experiment on HOP-92, in the experiment with EKVX, in the experiment with MDA-MB-435, in the experiment on HT-29 and in the experiment on SR was > 100 µM (inactive) throughout. Besides, the GI50 in the experiment on OVCAR-3, in the experiment on SW-620, with HCT-116, with 786-0, in the experiment on SNB-75 and with CCRF-CEM was > 100 µM (inactive) throughout. The GI50 in the experiment on NCI/ADR-RES is > 100 µM (inactive); in the experiment on HCT-15, over 100 µM; in the experiment with A498 it was > 100 µM (inactive); in the experiment with SK-MEL-28, > 100 µM (inactive); with MDA-MB-231, > 100 µM (inactive); in the experiment with SNB-19, > 100 µM (inactive).
Turning to `OCCNCCN1CCN(CCCN2c3ccccc3Sc3ccc(C(F)(F)F)cc32)CC1`, the GI50 is 50.6 µM (inactive) in the experiment on DU-145; 28.1 µM (inactive) with EKVX; 18.8 µM (inactive) with MDA-MB-435; 14 µM (inactive) in the experiment with HT-29; > 100 µM (inactive) with RPMI-8226; > 100 µM (inactive) with SR. Besides, the GI50 is 22.7 µM (inactive) with OVCAR-3; 19.2 µM (inactive) in the experiment on SW-620; 17.9 µM (inactive) in the experiment with HCT-116; 19.2 µM (inactive) in the experiment with NCI-H522; 17.3 µM (inactive) in the experiment on 786-0; > 100 µM (inactive) with CCRF-CEM. Moreover, the GI50 in the experiment on NCI/ADR-RES was 27.8 µM (inactive); in the experiment with HCT-15 it was 19.7 µM; with A498, > 100 µM (inactive); in the experiment on SK-MEL-28, 23.6 µM (inactive); in the experiment with MDA-MB-231 it was 20.9 µM (inactive); in the experiment with SNB-19 it was 24.7 µM (inactive).
As to `OC1(CCc2ccccc2)COC(C(F)(F)F)(C(F)(F)F)C1` (stereo not drawn), the GI50 in the experiment with DU-145 is > 100 µM (inactive); in the experiment on EKVX it was > 100 µM (inactive); in the experiment on MDA-MB-435, > 100 µM (inactive); with HT-29, > 100 µM (inactive); in the experiment on RPMI-8226, 97.3 µM (inactive); in the experiment on SR, > 100 µM (inactive). In addition, the GI50 in the experiment with OVCAR-3, in the experiment on SW-620, in the experiment on HCT-116, in the experiment with NCI-H522, in the experiment on 786-0 and in the experiment with SNB-75 was > 100 µM (inactive) throughout. Besides, the GI50 with CCRF-CEM was > 100 µM (inactive); with NCI/ADR-RES, > 100 µM (inactive); in the experiment with HCT-15, over 100 µM; in the experiment on A498, > 100 µM (inactive); in the experiment on SK-MEL-28, > 100 µM (inactive); with MDA-MB-231, > 100 µM (inactive). The GI50 in the experiment on SNB-19 is > 100 µM (inactive).
On to `CCCCCCCCOC1C(O)C(O)C(O)C(O)C12CO2` (stereo not drawn), for which the GI50 in the experiment on DU-145 is 76.6 µM (inactive); with MDA-MB-435, 29.8 µM (inactive); in the experiment on HT-29, 49.5 µM (inactive); in the experiment on RPMI-8226, 50.2 µM (inactive); in the experiment on SR, 48.4 µM (inactive); in the experiment on OVCAR-3, 50.4 µM (inactive). Besides, the GI50 in the experiment with SW-620 was 45.4 µM (inactive); in the experiment on HCT-116, 41 µM (inactive); with NCI-H522 it was 26.7 µM (inactive); with 786-0, 73.8 µM (inactive); in the experiment on SNB-75 it was 32 µM (inactive); in the experiment with CCRF-CEM, 28.3 µM (inactive). Moreover, the GI50 is 40.5 µM (inactive) with NCI/ADR-RES; 50.4 µM with HCT-15; > 100 µM (inactive) in the experiment with A498; > 100 µM (inactive) in the experiment with SK-MEL-28; 39.8 µM (inactive) in the experiment with MDA-MB-231; 91.4 µM (inactive) in the experiment on SNB-19.

The values are drawn from ChEMBL document CHEMBL1201862, “PubChem BioAssay data set” (2004).
